Laboratory results taken from ChEMBL document CHEMBL1641449, “A novel transition state analog inhibitor of guanase based on azepinomycin ring structure: Synthesis and biochemical assessment of enzyme inhibition” (Bioorg Med Chem Lett, 2011).

Target: T1, Guanine deaminase (Homo sapiens, UniProt Q9Y2T3)
T1 sequence (Q9Y2T3 whole entry): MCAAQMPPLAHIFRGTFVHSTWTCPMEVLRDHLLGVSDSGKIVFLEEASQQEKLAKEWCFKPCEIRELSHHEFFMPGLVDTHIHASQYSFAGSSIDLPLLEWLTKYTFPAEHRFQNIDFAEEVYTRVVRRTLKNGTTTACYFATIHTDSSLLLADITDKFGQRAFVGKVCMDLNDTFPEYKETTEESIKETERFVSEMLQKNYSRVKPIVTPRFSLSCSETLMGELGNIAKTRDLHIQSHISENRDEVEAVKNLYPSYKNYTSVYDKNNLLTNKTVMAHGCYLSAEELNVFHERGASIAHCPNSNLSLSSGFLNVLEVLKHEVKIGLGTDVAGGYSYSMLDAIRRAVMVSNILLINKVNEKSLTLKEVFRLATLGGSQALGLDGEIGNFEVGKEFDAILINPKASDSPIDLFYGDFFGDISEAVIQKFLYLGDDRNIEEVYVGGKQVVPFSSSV
Assay: Competitive inhibition of guanase by Lineweaver-Burk plot analysis

- Ki: 16.7 µM
SMILES: O=C(NC1(CO)NC(=O)c2ncn(Cc3ccccc3)c2NC1=O)OCc1ccccc1 (stereo unspecified)
